# Source: paper PMC5885031, “Chlamydia trachomatis dapF Encodes a Bifunctional Enzyme Capable of Both D-Glutamate Racemase and Diaminopimelate Epimerase Activities” (mBio, 2018)
# What was measured:
# Assay type in all cases: biochemical
# [1] = target: T1, DapFCT-His (chlamydial DapF, DAP epimerase) (Chlamydia trachomatis, UniProt B0B802); assay: glutamate racemase assay coupled to L-glutamate dehydrogenase (NADPH, […] nm); conditions: 20 mM D-Glu, 10 uM PLP, 10 mM MgCl2, 20 mM Tris-Cl pH 8.0, 37 C; racemization to L-Glu
# T1 construct: 6-His tag at 5' end (N-terminal), tag not removed; pTBSG vector, E. coli BL21(DE3); Ni-NTA purified; ~32 kDa
# T1 sequence (B0B802 1-275): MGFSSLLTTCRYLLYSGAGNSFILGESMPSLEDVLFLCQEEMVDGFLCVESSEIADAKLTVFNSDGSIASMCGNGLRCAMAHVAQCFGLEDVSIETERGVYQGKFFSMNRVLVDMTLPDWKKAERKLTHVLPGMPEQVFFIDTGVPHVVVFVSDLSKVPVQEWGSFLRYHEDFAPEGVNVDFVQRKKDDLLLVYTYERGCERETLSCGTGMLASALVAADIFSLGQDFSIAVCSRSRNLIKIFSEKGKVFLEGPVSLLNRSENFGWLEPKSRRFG
# [2] = target: T1, DapFCT-His (chlamydial DapF, DAP epimerase); assay: as above; conditions: 10 mM D-Glu as substrate, 10 uM PLP, 10 mM MgCl2, 20 mM Tris-Cl pH 8.0, 37 C; competing substrate
# [3] = target: T1, DapFCT-His (chlamydial DapF, DAP epimerase); assay: glutamate racemase coupled assay with and without PLP; conditions: 10 uM PLP, D-Glu as substrate, 10 mM MgCl2, 20 mM Tris-Cl pH 8.0, 37 C; required for racemase activity
structure (smiles),measurement,setting,value
N[C@H](CCC(=O)O)C(=O)O [D-Glu],"glutamate racemase assay coupled to L-glutamate dehydrogenase (NADPH, 340 nm)",[1],Purified DapFCT-His was assayed for glutamate racemase activity with D-Glu as the substrate
"N[C@@H](CCC[C@H](N)C(=O)O)C(=O)O [L,L-DAP]","% decrease of glutamate racemase activity at 10 mM L,L-DAP",[2],47%
Cc1ncc(COP(=O)(O)O)c(C=O)c1O [pyridoxal phosphate],glutamate racemase coupled assay with and without PLP,[3],D-Glu racemization to L-Glu was found to be PLP dependent (Fig. 4a)
